For experiment [1], the system named is Lewis lung cancer (LLC) cells. The experiment is described as follows: In vitro co-culture of pre-treated MDSCs and LLC cells. The class given is cell-based, mouse. Particulars: lal−/− Ly6G+ cells pre-treated 20 μmol/L 24 hours; 72 hours co-culture.
For experiment [2], the system named is B16 melanoma cells. The experiment is described as follows: In vitro migration (wound healing) assay with pre-treated MDSCs. Particulars: co-culture with pre-treated lal−/− Ly6G+ cells; 24 hours; mitomycin C. The class given is cell-based, mouse. How it is done: In vitro wound healing assay was performed to analyze B16 melanoma cell migration. Briefly, B16 melanoma cells were seeded at a density of 1.5×10^5 cells/well into a 24-well plate and incubated overnight to form a confluent monolayer. Scratch was created by scraping the cell monolayer in a straight line with a p200 pipet tip. After washing 3 times with DMEM, the medium was changed with DMEM containing 10% FBS and 5 μg/mL mitomycin C (Sigma-Aldrich, St. Louis, Mo., USA), and MDSCs pre-treated with 9-HODE or ethanol for 24 hours were added onto B16 melanoma cell monolayer at a density of 1×10^6 cells/well. Images were taken at 0 and 24 hours after creating the scratch. Migration was estimated by measuring the distances from one side of scratch to the other side using Image Pro-Plus software (Media Cybernetics, Rockville, Md., USA).

In a further experiment the test system is Ly6G+ MDSCs. The experiment is described as follows: Transwell assay of MDSC transendothelial migration. It is filed as cell-based, mouse. Particulars: lal−/− Ly6G+ cells pre-treated 20 μmol/L 48 hours; four hours; vs ethanol. Here is the method: Transwell assay was used to determine MDSC transendothelial migration. SVECs were added to the upper chamber of 24-well 8.0-μm-pore Transwell plates (Corning, Corning, N.Y., USA), and incubated at 37° C., 5% CO2 for 48 hours to form an EC monolayer. The supernatant was then removed, and CellTracker™ Green 5-Chloromethylfluorescein Diacetate (CMFDA) (Invitrogen, Grand Island, N.Y., USA)-labeled MDSCs (2×10^4 cells in 200 μL media) were added to the upper well. After 4 hours, transendothelial migration of MDSCs was determined by counting their numbers in the lower chamber under 5 random microscopic fields.

The next experiment has as its system Ly6G+CD11b+ cells. The experiment is described as follows: ROS level in Ly6G+CD11b+ cells by flow cytometry. The class given is cell-based, mouse. As to conditions: lal−/− Ly6G+CD11b+ cells; 20 μmol/L, 48 hours. How it is done: The reactive oxygen species (ROS) level and mitochondrial membrane potential in MDSCs was measured by flow cytometry. Briefly, bone marrow cells were first treated with or without 20 μmol/L 9-HODE or ethanol for 2 days. For ROS level detection, cells were harvested, washed, and stained with 2′,7′-dichlorofluorescein diacetate (2 μmol/L, Invitrogen), allophycocyanin cy7-conjugated anti-Ly6G Ab, and phycoerythrin cy7-conjugated anti-CD 11b Ab (eBioscience) at 37° C. for 15 minutes. After PBS wash, the ROS level in Ly6G^+CD11b^+ cells was analyzed using a LSRII machine (BD Biosciences).

Experiment [3] deals with B16 melanoma cells. Briefly: B16 melanoma metastasis in LAP-Tg/KO mice. As to conditions: hepatocyte-specific expression in lal−/− mice; 5×10^5 cells i.v., two weeks. The class given is in vivo, mouse. The source says: LAP-tTA/(TetO)7-CMV-hLAL; lal^−/− (LAP-Tg/KO) triple mice of the FVB/N background was established by cross-breeding of LAP-tTA transgenic mice (Jackson's Laboratory, Bar Harbor, Me.) with a previously generated (tetO)7-CMV-hLAL transgenic mice into lal^−/− mice. This triple transgenic mouse model was hepatocyte-specific Tet-off expression of wild-type hLAL in lal^−/− mice under the control of the LAP. All scientific protocols that involved the use of animals were approved by the Institutional Animal Care and Use Committee of Indiana University School of Medicine and followed guidelines established by the Panel on Euthanasia of the American Veterinary Medical Association. Animals were housed in a secured animal facility at Indiana University School of Medicine.
Tissues from the liver, intestine, and lung were collected after mice were anesthetized. All tissues were washed with phosphate-buffered saline and dehydrated by a series of increasing ethanol concentrations, followed by paraffin embedding. Sections were stained with anti-Ki67 antibody, anti-LAL antibody, and anti-F4/80 antibody by the histologic core.
For experimental metastasis, 5×10^5 B16 melanoma cells in 200 μL of phosphate-buffered saline were injected into the mice via tail vein. Two weeks after the injection, the mice were sacrificed, and the livers and lungs were harvested for examination of metastasis.

Experiment [4] concerns pulmonary endothelial cells (ECs). Briefly: In vitro BALF treatment of pulmonary endothelial cells (proliferation, wound healing). It is filed as cell-based, mouse. Here is the method: ECs were isolated from lal^+/+ lungs and cultured in vitro. Briefly, the mouse was anesthetized and 1 mL collagenase A (2 mg/mL, Roche, Indianapolis, Ind., USA) was infused into the lung through the trachea. The lung was removed and then incubated with 10 mL collagenase A at 37° C. for 30 minutes. After the incubation, the resulting cell suspension was filtered through a 40 μm strainer and centrifuged for 5 minutes at 1,500 rpm. After removal of the supernatant, the cell pellet was subjected to magnetic bead sorting using anti-CD31 microbeads (Miltenyi Biotec., Auburn, Calif., USA) according to the manufacturer's protocol. The resulting cells were plated onto gelatin-coated (Sigma-Aldrich) 6-well plates and maintained in DMEM supplemented with endothelial cell growth supplement, heparin, L-Glutamine (Sigma-Aldrich), FBS, and Antibiotic-Antimycotic (Gibco).
To examine the effect of BALF on EC proliferation, 5×10^4 ECs were seeded into a well of 24-well plates in 250 μL DMEM supplemented with 10% FBS, and then treated with 250 μL BALF harvested from lal^+/+, lal^−/− or CCSP-Tg/KO triple mice. Seventy-two hours later, the number of ECs was counted.
To analyze the effects of BALF on tumor cell or EC migration, in vitro wound healing assays were performed. […]

For the molecule 9-hydroxyoctadecadienoic acid [9-HODE], the “proliferation of LLC cells upon co-culture” value in experiment [1] was “reduced proliferation of LLC cells”. The “B16 melanoma cell migration into wound area” value with B16 melanoma cells [2] is “delayed migration towards the scratch”. Further, the “Ly6G+ cells migrated across endothelial monolayer” value in the experiment with Ly6G+ MDSCs is reported as “less Ly6G^+ cells in the lower chamber”. Moreover, the ROS production entry in the experiment on Ly6G+CD11b+ cells is “suppressed the increased ROS production”.

B1: hLAL: human lysosomal acid lipase expressed from a doxycycline-controlled tissue-specific transgene in lal−/− mice; never administered as a protein (protein)
chain: GPKPVVFLQHGLLADSSNWVTNLANSSLGFILADAGFDVWMGNSRGNTWSRKHKTLSVSQDEFWAFSYDEMAKYDLPASINFILNKTGQEQVYYVGHSQGTTIGFIAFSQIPELAKRIKMFFALGPVASVAFCTSPMAKLGRLPDHLIKDLFGDKEFLPQSAFLKWLGTHVCTHVILKELCGNLCFLLCGFNERNLNMSRVDVYTTHSPAGTSVQNMLHWSQAVKFQKFQAFDWGSSAKNYFHYNQSYPPTYNVKDMLVPTAVWSGGHDWLADVYDVNILLTQITNLVFHESIPEWEHLDFIWGLDAPWRLYNKIINLMRKYQ
modifications: left off: small tags and cut ends
notes: human lysosomal acid lipase expressed from a doxycycline-controlled tissue-specific transgene in lal−/− mice; never administered as a protein
As to B1, the “B16 melanoma cell metastasis in liver and lung” value in the experiment on B16 melanoma cells [3] is recorded as “reduced B16 melanoma cell metastasis”. Also, the “EC migration (wound healing)” value in experiment [4] (BALF from doxycycline-treated CCSP-Tg/KO mice, 15 hours, mitomycin C) is on record as “decreased EC migration”. Further, the EC proliferation result in experiment [4] (lal+/+ ECs with BALF from doxycycline-treated CCSP-Tg/KO mice, 72 hours) is on record as “decreased EC proliferation”.

For the origin of these results see patent publication US10857209B2, “Lysosomal acid lipase and PPAR gamma ligands as immune therapies for cancer treatment” (Indiana University Research and Technology Corporation, priority 2016, dated 2020).
